Like-named read-outs stand apart in the source and are kept apart here.
Columns and labels:
[1] = cited from earlier work
[2] = cited from earlier work; remark: listed apart in the source
[3] = tested on: human hepatic stellate cells from normal non-fibrosis subjects; assay: ROS (DCFDA) after oxidative stress induced by palmitic acid or H2O2; format: cell-based; details: inducer alone: palmitic acid 0.5 mM or H2O2 25 μM, vs vehicle
Protocol: Reactive Oxygen Species (ROS) quantification. ROS production, as an index of oxidative stress, in stellate cells was measured using DCFDA fluorescence as described previously. In brief, cells were incubated with DCFDA (10 μmol/L) for 30 min.

[4] = tested on: human hepatic stellate cells from non-fibrotic subjects; assay: Prevention of TGF-β or H2O2-induced collagen production (Sirius Red); format: cell-based; details: inducer alone: H2O2 25 μM or TGF-β 20 ng/mL, 24 h, vs vehicle
Protocol: Hepatic stellate cell fibrosis quantification.
Hepatic stellate cell fibrosis was assessed by measuring collagen content by Sirius Red staining kit.

[5] = cited from earlier work; remark: listed apart in the source

In the case of `O=C(O[C@H]1[C@H](OC(=O)c2cccnc2)[C@@H](OC(=O)c2cccnc2)[C@H](OC(=O)c2cccnc2)[C@@H](OC(=O)c2cccnc2)[C@H]1OC(=O)c1cccnc1)c1cccnc1` [inositol hexanicotinate], the “peak plasma level of nicotinic acid” value ([1]; 1,000 mg of IHN (˜910 mg nicotinic acid equivalent), oral) is given as 0.2 µg/mL, the “time for hydrolysis of the ester bonds and release of free nicotinic acid” value ([1]; human serum) is given as “more than 48 hours” and the “time of peak plasma levels of free nicotinic acid” value ([1]; oral doses of 0.8 to 4.2 g of inositol hexanicotinate, humans) is given as 6 to 12 h. For the same compound, the “gastrointestinal absorption, average of orally ingested dose absorbed” value ([1]; oral) was 70%, the tolerability ([2]; in vivo) was “well tolerated” and the management of dyslipidemia ([2]; vs placebo (Keenan 2010)) was “no better than placebo”.
For `CCCCCCCCCCCCCCCC(=O)O` [palmitic acid], the “induction of stellate cell ROS levels” value [3] was 3.6 fold.
For TGF-β, the “increase of collagen content” value [4] was 233%.
In the case of `O=C(O)c1cccnc1` [niacin, nicotinic acid], the absorption ([5]; oral amounts of 3-4 grams) is given as “nearly complete”, the “time of peak plasma levels of free nicotinic acid” value ([5]; oral dose of 1000 mg of nicotinic acid) is given as 0.5 to 1 h and the “eliminated by the kidneys as unchanged niacin or nicotinuric acid” value ([5]; oral pharmacologic dose) is given as “Approximately 88%”. For the same compound, the “peak plasma level of nicotinic acid” value ([5]; single oral dose of 1000 mg nicotinic acid) was 30 µg/mL.
In the case of `OO` [H2O2, hydrogen peroxide], the “induction of stellate cell ROS levels” value [3] is reported as 5.2 fold and the “increase of collagen content” value [4] is reported as 266%.

From patent US20220152012A1 (The Regents of the University of California, priority 2020, published 2022)
